# Where two headings read alike, the source gives them in different places.
# Key:
# [1] = test system: NCC from stressed fish (lysis of IM-9 target cells); settings: 100:1, control 0.9
# Method: (§1) A ^51 Cr release assay was used to determine cytotoxicity. Target cells at 1-2×10^6 cells/ml were labeled with 100 μCi of sodium chromate (Amersham, Arlington Heights, Ill.). NCC effector cells were treated as previously described [Evans et al. (1988) supra], centrifuged (500 g), and resuspended in media and added at different E:T ratios to the labeled target cells in round-bottomed 96-well microtiter plates. This mixture was incubated (25° C.) for 4-6 hours and 100 μl of each supernatant was removed to determine radioactivity (Beckman Biogamma II Counter; Beckman Instruments, Irvine, Calif.). The results are expressed as either percentage specific release (SR)=[(test release--spontaneous release)/(total release--spontaneous release)]×100; percent inhibition=[(percentage control SR--percentage test SR)/percentage control SR]×100; and percentage increase=(percentage test SR--percentage control SR)/percentage control SR.
# A common observation in fish exposed to stress, e.g., toxicants, drastic temperature changes, handling, etc., is the temporary loss of NCC activity.
# [2] = test system: NCC in anterior kidney tissue; settings: for % NCC in anterior kidney tissue / Total cells/ml: 50 μM
# [3] = test system: NCC (lysis of IM-9 target cells); settings: for effect of removal of inhibitor on NCC activation (words): 90 minutes treatment, washed, E:T 40:1; for enhancement of destruction of IM-9 target cells (fold): over control, lower E:T ratios
# Method: FIG. 4. Individual and combined effects of phosphatase inhibitors on NCC cytotoxicity, NCC (7×10^5 cells) were incubated with either media (.diamond.), vanadate (Δ) (5 mM). NaF (.smallcircle.) (20 mM), or both vanadate and NaF (.quadrature.) for the indicated time periods before addition to labeled IM-9 target cells.
# FIG. 5. Effects of removal of Na3 VO4 on NCC activation. NCC were harvested, incubated for three hours, washed, counted and added to duplicate tubes containing either media alone or media containing 2.5, 5 and 10 mM vanadate. Following a 90 minutes incubation time, the cells were either washed and resuspended in media (closed circles) or added directly (open circles) to wells containing ^51 chromium labeled IM-9 target cells (E:T ratio 40:1).
# FIG. 6. Effects of removal of NaF on NCC activation. NCC were harvested, incubated for three hours in media, washed, counted and added to duplicate tubes containing media alone or in the presence of 5, 10 and 20 mM NaF. Following a 90 minutes treatment time, NCC were either washed (closed circles) or added directly (open circles) to wells containing labeled IM-9 target cells (E:t ratio 40:1).
# FIG. 7. Effects of Na3 VO4 on NCC with different levels of cytotoxicity. NCC were harvested from anterior kidneys of fish from three different sources. The cells were incubated in media for three hours, washed, counted and added to test tubes containing either media alone or media with 2.5, 5 and 10 mM vanadate. Following a two hours incubation time, the effectors were added to wells containing labeled IM-9 cells at a 40:1 E:T ratio.
# FIG. 8. Effects of NaF on NCC with different levels of cytotoxicity. NCC were harvested from anterior kidneys of fish from three different sources. The cells were incubated in media for three hours, washed, counted and added to media or media with 5, 10 and 20 mM NaF. Following a two-hour incubation, NCC were added to wells containing ^51 chromium labeled IM-9 target cells for a final E:T ratio of 40:1.
# as §1
# NCC were obtained as previously described [Graves et al. (1984) supra]; Evans et al. (1984) supra]. […] NCC were then washed and resuspended at 20×10^6 cells/ml, and 35 μl aliquots were added to test tubes containing 315 μl media only (media control) or media containing the indicated treatments. After 2 hr incubation, the cells were mixed with ^51 Cr-labeled IM-9 target cells and incubated for 4-6 hours ([…]). Supernatants were harvested and cytotoxicity levels were calculated as previously described.
# Membrane phosphorylation is maintained through a delicate equilibrium between cellular kinase and phosphatase activities.
# In further studies, NCC were treated with different concentrations of protein phosphatase inhibitors for two hours and labeled IM-9 target cells were added for a four-hour microcytotoxicity assay (Table 8).
# Na^+ /K^+ ATPase = settings: cited from earlier work
# [4] = test system: cellular carbohydrate biosynthetic pathways; settings: cited from earlier work
# protein phosphatase = settings: cited from earlier work
# Edwardsiella ictaluri [5] = test system: Edwardsiella ictaluri
# Method: FIG. 11. Effects of treatment of catfish with vanadate prior to infection with E. ictaluri. In two different experiments (A and B), catfish were treated with vanadate (indicated concentrations) 48 hours prior to infection with Edwardsiella. Percent cumulative mortality for each treatment group is given. Numbers of fish were 12-15/group/experiment.
# Thus, catfish were treated (by immersion) with 0.05 mM vanadate for 48 hours prior to infection with Edwardsiella ictaluri.
# [6] = test system: muscles and liver; cardiac performance; settings: rats; cited from earlier work
# [7] = test system: NCC (lysis of IM-9 target cells); settings: 0.05 mM (50 μM), immersion, 10, 24, 48 hours
# Method: FIG. 9. In vivo NCC responses to vanadate treatment. Catfish were acclimated in 10 gal tanks for 24 hours prior to treatment. Vanadate was added directly to the tanks and cytotoxicity assays of NCC from treated and control fish were conducted at 10, 24 and 48 hours post-treatment.
# Fish were treated by immersion in 10 gal (static flow) tanks containing the appropriate inhibitor concentrations in 15 liters of dechlorinated water (19°-20° C.). All fish were acclimated to tank conditions 24 hours prior to treatment. Each tank housed twenty fish (approximately 4-5 inches in length). At 24 hour intervals 50% of the water was changed.
# To determine the ability of vanadate to act in vivo to activate NCC responses, fish were treated by immersion with 0.050 mM vanadate and cytotoxicity was determined at 10, 24 and 48 hours post-treatment.
# calcineurin = settings: cited from earlier work
# diabetic animals = settings: cited from earlier work
# Edwardsiella ictaluri [8] = settings: approximately 10 μM to approximately 25 μM, 18-24 hours; FIG. 10; listed as sodium orthovanadate
# [9] = test system: human prostate gland phosphotyrosyl protein phosphatase; settings: cited from earlier work
substance,measurement,setting,value
sodium orthovanadate,Percent Specific Release (stressed fish),[1]; Na3 VO4 5.0 mM,9.9%
same,Percent Specific Release (stressed fish),[1]; Na3 VO4 10.0 mM,13.1%
same,% NCC in anterior kidney tissue,"[2]; 3 hours post-treatment, control 60",51%
same,Total cells/ml,"[2]; 3 hours, control 3.2",3.1 cells/ml × 10^0
same,Total cells/ml,"[2]; 24 hours, control 2.6",2.8 cells/ml × 10^0
same,% NCC in anterior kidney tissue,"[2]; 24 hours, control 55",60%
same,Total cells/ml,"[2]; 48 hours, control 2.1",3.5 cells/ml × 10^0
same,% NCC in anterior kidney tissue,"[2]; 48 hours, control 52",66%
same,Total cells/ml,"[2]; 72 hours, control 2.3",3.1 cells/ml × 10^0
same,% NCC in anterior kidney tissue,"[2]; 72 hours, control 70",72%
same,Total cells/ml,"[2]; 96 hours, control 3.6",1.6 cells/ml × 10^0
same,% NCC in anterior kidney tissue,"[2]; 96 hours, control 61",78%
same,effect on total number of cells and percentage NCC in anterior kidney tissue,[2]; in vivo,not due to fluctuations in the total number of cells nor in the percentage of NCC
same,Percent Specific Release,"[3]; 5 mM, E:T 10, media 39",63%
same,Percent Specific Release,"[3]; 5 mM, E:T 25, media 4",29%
same,Percent Specific Release,"[3]; 5 mM, E:T 50, media 21",46%
same,Percent Specific Release,"[3]; 10 mM, E:T 10, media 39",62%
same,Percent Specific Release,"[3]; 10 mM, E:T 25, media 4",40%
same,Percent Specific Release,"[3]; 10 mM, E:T 50, media 21",49%
same,effect of removal of inhibitor on NCC activation (words),[3],slightly reduced levels of NCC cytotoxicity
same,effect of removal of inhibitor on NCC activation (words),[3]; listed as sodium vanadate,largely retained
same,enhancement of destruction of IM-9 target cells (fold),[3]; listed as Sodium vanadate,approximately six- to eightfold
same,enhancement of destruction of IM-9 target cells (fold),[3]; listed as sodium vanadate,as much as six- to eightfold
same,Na^+ /K^+ ATPase inhibition,Na^+ /K^+ ATPase,significantly inhibited
same,glucose oxidation,[4],stimulation of glucose oxidation
same,glycogen synthetase activity,[4],stimulation of glycogen synthetase activity
same,insulin activity,[4],prolongation of insulin activity
same,insulin binding,[4],augmentation of insulin binding
same,protein phosphatase activity,protein phosphatase,vanadate but not fluoride inhibited protein phosphatase activity
same,reduction in mortality,"Edwardsiella ictaluri [5]; 0.05 mM pretreatment 48 hours, FIG. 11A",27%
same,reduced mortality,"Edwardsiella ictaluri [5]; 0.05 mM pretreatment, 13-14 days post infection, FIG. 11B",54%
same,mortality / resistance after pretreatment (words),"Edwardsiella ictaluri [5]; 0.05 mM, 48 hours prior to infection, listed as sodium orthovanadate",produced resistance in catfish against the Edwardsiella pathogen
same,survival at 28 days post-infection,Edwardsiella ictaluri [5]; experiment B,all treated catfish were still alive
same,cardiac performance,[6],improved cardiac performance
same,glucose transport into muscles and liver,[6],stimulated glucose transport into muscles and liver
same,in vivo NCC cytotoxicity (words),[7]; listed as orthovanadate,significantly increased cytotoxicity 48 hours post-treatment
same,in vivo NCC cytotoxicity (words),[7]; listed as vanadate,large increases in cytotoxicity by 48 hours
same,calcineurin-mediated dephosphorylation,calcineurin,"fluoride, but not vanadate inhibited"
same,blood glucose levels in diabetic animals,"diabetic animals; oral, 15 μM in drinking water",normalization of blood glucose levels in diabetic animals
same,time to reversal of effects after suspension of treatment,diabetic animals; rats,two
same,mortality of infected catfish (words),Edwardsiella ictaluri [8],mortality was reduced
same,human prostate gland phosphotyrosyl protein phosphatase,[9],"fluoride, but not vanadate inhibited human prostate gland phosphotyrosyl protein phosphatase"
